Measurements from patent publication US6630504B2, “Phenoxyphenylheterocyclyl derivatives as SSRIs” (Pfizer Inc., priority 2000, dated 2003).
pIC50: −log10 of the molar value. Several values for one entry are separate records, joined by “and”; a condition that tells them apart may be missing. Equal entries are not always repeated. Structures can show the parent of a compound that is named as a salt.

Target: T1, human serotonin transporter (hSERT) (Homo sapiens, UniProt P31645)
T1 construct: expressed in transfected cells; host or cells: HEK-293 (stably transfected)
Experiment: inhibition of 3H-serotonin uptake in HEK-293 cells expressing hSERT
Format: cell-based
Settings: HEK-293 cells with hSERT, 3H-5HT 50 nM, 5 min incubation; read-out: serotonin re-uptake inhibition (SRI) IC50
Protocol: A number of compounds were tested for biological activity by their ability to inhibit the uptake of serotonin by human serotonin transporters as follows.
Human embryonic kidney cells (HEK-293) stably transfected with either the human serotonin transporter (hSERT), noradrenaline transporter (hNET) or dopamine transporter (hDAT) were cultured under standard cell culture techniques (cells were grown at 37° C. and 5% CO2 in DMEM-culture media (supplemented with 10% dialysed foetal calf serum (FCS), 2 mM I-glutamine and 250 μg/ml geneticin)). Cells were harvested for the assay to yield a cell suspension of 750,000 cells/ml.
All test compounds were dissolved in 100% DMSO and diluted down in assay buffer to give appropriate test concentrations. Assays were carried out in 96-well filter bottom plates. Cells (7500 cells/assay well) were pre-incubated in standard assay buffer containing either test compound, standard inhibitor or compound vehicle (1% DMSO) for 5 minutes. Reactions were started by addition of either ^3H-Serotonin, ^3H-Noradrenaline or ^3H-Dopamine substrates. All reactions were carried out at room temperature in a shaking incubator. Incubation times were 5 minutes for the hSERT and hDAT assays and 15 minutes for the hNET assay. Reactions were terminated by removal of the reaction mixture using a vacuum manifold followed by rapid washing with ice cold assay buffer. The quantity of ^3H-substrate incorporated into the cells was then quantified.
Assay plates were dried in a microwave oven, scintillation fluid added, and radioactivity measured. Potency of test compounds was quantified as IC50 values (concentration of test compound required to inhibit the specific uptake of radiolabelled substrate into the cells by 50%).

T1 sequence (P31645 whole entry): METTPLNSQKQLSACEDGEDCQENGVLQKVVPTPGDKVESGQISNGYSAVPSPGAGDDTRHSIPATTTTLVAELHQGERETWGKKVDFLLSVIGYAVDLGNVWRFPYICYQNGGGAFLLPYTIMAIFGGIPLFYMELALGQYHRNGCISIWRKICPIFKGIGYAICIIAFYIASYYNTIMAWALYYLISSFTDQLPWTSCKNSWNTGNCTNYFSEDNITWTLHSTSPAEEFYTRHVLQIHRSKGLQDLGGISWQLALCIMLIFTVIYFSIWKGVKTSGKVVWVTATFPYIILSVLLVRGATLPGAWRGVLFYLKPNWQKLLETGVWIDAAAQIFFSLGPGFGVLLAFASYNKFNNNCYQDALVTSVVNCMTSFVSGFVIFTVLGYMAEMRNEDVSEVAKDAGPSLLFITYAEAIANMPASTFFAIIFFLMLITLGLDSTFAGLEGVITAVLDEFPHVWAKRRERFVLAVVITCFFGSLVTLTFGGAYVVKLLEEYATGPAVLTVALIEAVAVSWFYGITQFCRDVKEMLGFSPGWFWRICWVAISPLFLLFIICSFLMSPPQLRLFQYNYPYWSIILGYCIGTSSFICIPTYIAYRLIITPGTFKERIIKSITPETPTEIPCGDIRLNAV

pIC50 | Structure (SMILES)
≥ 7.00 and ≥ 7.30 and 8.23 | CNS(=O)(=O)c1ccc(Oc2ccc(SC)cc2)c(C2CCCN2)c1 (single isomer, unassigned) [Example 11, N-methyl-4-[4-(methylsulfanyl)phenoxy]-3-(2-pyrrolidinyl)benzenesulfonamide]
7.89 | CS(=O)(=O)Nc1ccc(Oc2ccc(OC(F)(F)F)cc2)c(C2CCCN2)c1 (single isomer, unassigned) [Example 21]
≥ 7.00 and ≥ 7.30 and 8.27 | CSc1ccc(Oc2ccc(S(N)(=O)=O)cc2C2CCCN2)cc1 (single isomer, unassigned; (+)) [Example 7, (+)4-[4-(Methylsulfanyl)phenoxy]-3-(2-pyrrolidinyl)benzenesulfonamide hydrochloride]
≥ 7.30 | CS(=O)(=O)Nc1ccc(Oc2ccc(OC(F)(F)F)cc2)c(C2CCCN2)c1 (single isomer, unassigned; (+)) [Example 22, (+) N-{3-(2-pyrrolidinyl)-4-[4-(trifluoromethoxy)phenoxy]phenyl}-methanesulfonamide]
